Measured values published in ChEMBL document CHEMBL1134060, “Synthesis and evaluation of hexahydrochrysene and tetrahydrobenzofluorene ligands for the estrogen receptor” (Bioorg Med Chem Lett, 2001).

Legend:
[1] = biological target: Estrogen receptor beta (Homo sapiens) (UniProt Q92731); experiment: Relative binding affinity for human Estrogen receptor beta compared to estradiol (E2)
[2] = biological target: T1, Estrogen receptor (Homo sapiens) (UniProt P03372); experiment: Antagonistic effect on 1 nM estradiol induced transcriptional activation in HEC-1 cells expressing estrogen receptor alpha at 10e-7 M; format: functional, cell-based
T1 sequence (whole entry): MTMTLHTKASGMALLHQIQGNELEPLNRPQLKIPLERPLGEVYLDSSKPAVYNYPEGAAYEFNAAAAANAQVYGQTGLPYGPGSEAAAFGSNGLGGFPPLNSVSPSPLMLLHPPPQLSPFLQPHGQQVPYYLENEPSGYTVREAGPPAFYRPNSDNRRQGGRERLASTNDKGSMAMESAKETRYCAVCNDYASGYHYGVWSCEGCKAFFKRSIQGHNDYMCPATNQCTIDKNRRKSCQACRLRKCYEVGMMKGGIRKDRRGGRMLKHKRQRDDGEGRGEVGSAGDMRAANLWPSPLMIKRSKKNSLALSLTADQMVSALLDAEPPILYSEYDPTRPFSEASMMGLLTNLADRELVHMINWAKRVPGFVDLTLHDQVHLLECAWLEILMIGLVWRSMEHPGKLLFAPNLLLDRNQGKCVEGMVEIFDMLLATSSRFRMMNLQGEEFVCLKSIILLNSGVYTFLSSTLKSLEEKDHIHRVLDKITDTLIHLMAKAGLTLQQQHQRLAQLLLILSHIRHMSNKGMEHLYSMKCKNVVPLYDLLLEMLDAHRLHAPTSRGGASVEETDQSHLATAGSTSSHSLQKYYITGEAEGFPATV

[3] = biological target: Estrogen receptor beta (Homo sapiens) (UniProt Q92731); experiment: Transcriptional activation in human endometrial carcinoma (HEC-1) cells expressing estrogen receptor beta at 10e-6 M; format: functional
[4] = biological target: Estrogen receptor beta (Homo sapiens) (UniProt Q92731); experiment: Transcriptional activation in human endometrial carcinoma (HEC-1) cells expressing estrogen receptor beta at 10e-9 M; format: functional
[5] = biological target: Estrogen receptor beta (Homo sapiens) (UniProt Q92731); experiment: Antagonistic effect on 1 nM estradiol induced transcriptional activation in HEC-1 cells expressing estrogen receptor beta at 10e-6 M; format: functional, cell-based
[6] = biological target: Estrogen receptor beta (Homo sapiens) (UniProt Q92731); experiment: Antagonistic effect on 1 nM estradiol induced transcriptional activation in HEC-1 cells expressing estrogen receptor beta at 10e-7 M; format: functional, cell-based
[7] = biological target: Estrogen receptor beta (Homo sapiens) (UniProt Q92731); experiment: Antagonistic effect on 1 nM estradiol induced transcriptional activation in HEC-1 cells expressing estrogen receptor beta at 10e-8 M; format: functional, cell-based
[8] = biological target: T1, Estrogen receptor (Homo sapiens); experiment: Antagonistic effect on 1 nM estradiol induced transcriptional activation in HEC-1 cells expressing estrogen receptor alpha at 10e-6 M; format: functional, cell-based
[9] = biological target: Estrogen receptor beta (Homo sapiens) (UniProt Q92731); experiment: Antagonistic effect on 1 nM estradiol induced transcriptional activation in HEC-1 cells expressing estrogen receptor beta at 10e-9 M; format: functional, cell-based

Chain of Estrogen receptor beta (Homo sapiens) (Q92731 whole entry): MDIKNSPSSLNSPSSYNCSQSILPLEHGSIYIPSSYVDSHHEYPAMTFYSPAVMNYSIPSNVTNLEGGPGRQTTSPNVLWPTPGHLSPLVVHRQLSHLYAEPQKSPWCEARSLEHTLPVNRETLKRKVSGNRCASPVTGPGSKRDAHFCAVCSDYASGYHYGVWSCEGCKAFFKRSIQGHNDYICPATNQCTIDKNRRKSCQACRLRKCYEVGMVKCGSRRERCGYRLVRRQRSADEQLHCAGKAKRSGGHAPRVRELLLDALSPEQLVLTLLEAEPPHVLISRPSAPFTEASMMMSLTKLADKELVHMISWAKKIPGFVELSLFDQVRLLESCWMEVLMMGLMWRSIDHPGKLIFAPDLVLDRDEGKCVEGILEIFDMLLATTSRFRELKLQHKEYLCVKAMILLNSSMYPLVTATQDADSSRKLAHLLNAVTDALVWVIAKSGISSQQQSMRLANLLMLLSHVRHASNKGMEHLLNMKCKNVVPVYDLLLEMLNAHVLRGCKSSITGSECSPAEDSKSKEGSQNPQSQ

RBA [1]	SMILES	also measured
130%	Oc1ccc2c(c1)CC[C@H]1c3ccc(O)cc3CC[C@@H]21	–
2%	O=C1c2cc(O)ccc2[C@H]2CCc3cc(O)ccc3[C@@H]12	–
71%	Oc1ccc2c(c1)CC[C@@H]1c3ccc(O)cc3CC[C@H]21	–
280%	CCC1c2cc(O)ccc2[C@H]2CCc3cc(O)ccc3[C@@H]12 (stereo in doubt; 17b)	–
300%	CCC1c2cc(O)ccc2[C@H]2CCc3cc(O)ccc3[C@@H]12 (stereo in doubt; 17a)	–
63%	Oc1ccc2c(c1)C[C@@H]1c3ccc(O)cc3CC[C@H]21	–

Further lines, the compound ahead of its results:

SMILES	RBA [1]	also measured
Oc1ccc2c(c1)CC[C@@H]1c3ccc(O)cc3[C@H](c3ccc(OCCN4CCCCC4)cc3)[C@H]21	10%	Response [2]: 10%; Response [3]: 5%; Response [4]: 70%; Response [5]: 5%; Response [6]: 15%; Response [7]: 30%
CC[C@@H]1Cc2cc(O)ccc2C2=C1c1ccc(O)cc1C[C@H]2CC	144%	–
Oc1ccc2c(c1)CC[C@@H]1c3ccc(O)cc3C[C@H](c3ccc(OCCN4CCCCC4)cc3)[C@H]21	0.06%	Response [8]: 25%; Response [6]: 104%; Response [7]: 105%; Response [9]: 5%
CCC1Cc2cc(O)ccc2C2C(CC)Cc3cc(O)ccc3C12 (stereo unspecified)	16%	–
Oc1ccc2c(c1)CCC1=C2CCc2cc(O)ccc21	6.5%	–
